Values joined by “and” are separate entries in the source; they are usually repeats but may differ in a detail not shown here. Identical values can stand only once. Like-named read-outs stand apart in the source and are kept apart here. Marks after values point to notes of the source that are not given here.
Legend:
[1] = system: nitric oxide synthase system; details: beef; for Residual Nitrite, LSMean main effect of Temperature: sodium nitrite
Procedure: (§1) Fresh ground meat (beef, pork or poultry) was separated in ˜0.5 Kg batches and mixed with 2% salt and 10% added water. […] Each individual batch was mixed (1 min) in a food processor, removed for temperature and pH analyses and then placed into a jerky extruder tube. Approximately 25 g of sample were extruded into 50 mL centrifuge, then capped and labeled and placed into a controlled water batch and heated to a designated internal endpoint temperature (132, 158, or 165° F.).
(§2) Samples also contained 547 ppm sodium erythorbate, a cure accelerator (Phase I) and without sodium erythorbate (Phase II). Samples were placed into test tubes and heated in a controlled water bath to 132, 158 and 165° F. Samples were held in a 40° F. cooler for seven days then tested for residual nitrite. Residual nitrite was tested after deproteinization for amino acid analysis by HPLC. Determination of nitrite (UV/VIS Spectrophotometric Method) was used to detect any residual nitrite for best results in detecting minute amounts of nitrite. Residual nitrite levels were read in a 96 well plate reader at 540 nm.
(§3) Both phases of the experiment were designed as a factorial (concentration level and endpoint temperature) randomized complete block design with three replications. […] Least squares means were generated and Tukey's HSD used to determine significance at P≤0.05.

NOS system [2] = test: NO-heme, total heme, nitrosylation in test beef frankfurters (Example 12); details: 156 ppm sodium nitrite with sodium erythorbate 547 ppm
Procedure: (§4) The remaining nonmeat ingredients were added (except the antimicrobial) and chopped at 2000 rpm for one minute. Protecta (sodium acetate antimicrobial) was added and the emulsion chopped at 4000 rpm for one minute. The emulsion was evacuated and placed into a vacuum assisted stuffer where each test emulsion was stuffed and twist linked into 22 mm cellulose casings weighing 40 g each. The frankfurter links were hung on smokehouse trucks, placed into a commercial smokehouse and thermally processed to 160° F. (Table 18).
(§5) After thermal processing and chilling (40° F.), the casings were peeled from the frankfurters and were vacuum packaged and stored under refrigerated conditions for residual nitrite and nitrosylation. […] This was done to determine if the L-arginine could the NOS system to generate sufficient NO for cure color development and residual nitrite for antioxidant and antimicrobial effect.

[3] = system: nitric oxide synthase system; details: pork; for Residual Nitrite, LSMean main effect of Temperature: sodium nitrite
Procedure: as §1, §2, §3

NOS system [4] = test: Residual nitrite in test beef frankfurters (Example 12); details: 156 ppm sodium nitrite with sodium erythorbate 547 ppm
Procedure: as §4, §5

[5] = system: nitric oxide synthase system; details: 156 ppm sodium nitrite
Procedure: (§6) After thermal processing and chilling according to USDA-FSIS Appendix A—Thermal processing (71° C.) and B—Cooling procedures (2° C.) guidelines, the frankfurters will be vacuum packaged and stored under refrigeration (2° C.) until analyzed at 0, 14, 28 and 56 days post manufacture.
The samples were analyzed for residual nitrite after deproteinization by sample preparation for amino acid analysis by HPLC.
(§7) Samples were vacuum packaged and refrigerated and evaluated on Day 1, 7, 14, 28 and 56 post manufacture. Differences between treatment and control samples will be determined using Tukey's Least Significant Difference procedure at P≤0.05 level. The experiment was replicated three times.

[6] = system: nitric oxide synthase system; details: poultry; for Residual Nitrite, LSMean main effect of Temperature: sodium nitrite
Procedure: as §1, §2, §3

[7] = 156 ppm sodium nitrite
Procedure: as §6
Cooked sample water activity was measured (in triplicate) using an Aqualab Model Series 3 water activity meter.
as §7

[8] = Phase I, with 547 ppm sodium erythorbate, 120 ppm sodium nitrite
[9] = Phase I, with 547 ppm sodium erythorbate, 120 ppm sodium nitrite, 132° F.
[10] = Phase I, with 547 ppm sodium erythorbate, 120 ppm sodium nitrite, 158° F.
[11] = Phase I, with 547 ppm sodium erythorbate, 120 ppm sodium nitrite, 165° F.
[12] = Phase I, with 547 ppm sodium erythorbate, 156 ppm sodium nitrite
[13] = Phase I, with 547 ppm sodium erythorbate, 156 ppm sodium nitrite, 132° F.
[14] = Phase I, with 547 ppm sodium erythorbate, 156 ppm sodium nitrite, 158° F.
[15] = Phase I, with 547 ppm sodium erythorbate, 156 ppm sodium nitrite, 165° F.
[16] = Phase I, with 547 ppm sodium erythorbate, 200 ppm sodium nitrite
[17] = Phase I, with 547 ppm sodium erythorbate, 200 ppm sodium nitrite, 132° F.
[18] = Phase I, with 547 ppm sodium erythorbate, 200 ppm sodium nitrite, 158° F.
[19] = Phase I, with 547 ppm sodium erythorbate, 200 ppm sodium nitrite, 165° F.
[20] = Phase I, with 547 ppm sodium erythorbate, 132° F.
[21] = Phase I, with 547 ppm sodium erythorbate, 158° F.
[22] = Phase I, with 547 ppm sodium erythorbate, 165° F.
[23] = Phase II, without 547 ppm sodium erythorbate, 120 ppm sodium nitrite
[24] = Phase II, without 547 ppm sodium erythorbate, 120 ppm sodium nitrite, 132° F.
[25] = Phase II, without 547 ppm sodium erythorbate, 120 ppm sodium nitrite, 158° F.
[26] = Phase II, without 547 ppm sodium erythorbate, 120 ppm sodium nitrite, 165° F.
[27] = Phase II, without 547 ppm sodium erythorbate, 156 ppm sodium nitrite
[28] = Phase II, without 547 ppm sodium erythorbate, 156 ppm sodium nitrite, 132° F.
[29] = Phase II, without 547 ppm sodium erythorbate, 156 ppm sodium nitrite, 158° F.
[30] = Phase II, without 547 ppm sodium erythorbate, 156 ppm sodium nitrite, 165° F.
[31] = Phase II, without 547 ppm sodium erythorbate, 200 ppm sodium nitrite
[32] = Phase II, without 547 ppm sodium erythorbate, 200 ppm sodium nitrite, 132° F.
[33] = Phase II, without 547 ppm sodium erythorbate, 200 ppm sodium nitrite, 158° F.
[34] = Phase II, without 547 ppm sodium erythorbate, 200 ppm sodium nitrite, 165° F.
[35] = Phase II, without 547 ppm sodium erythorbate, 132° F.
[36] = Phase II, without 547 ppm sodium erythorbate, 158° F.
[37] = Phase II, without 547 ppm sodium erythorbate, 165° F.

SMILES: O=NO [Sodium Nitrite, Sodium nitrite, reference compound]
- Residual Nitrite, LSMean main effect of Concentration [1, 8]: 75.33 ppm
- Residual Nitrite, LSMean Conc × Temp [1, 9]: 119.32^a ppm
- Residual Nitrite, LSMean Conc × Temp [1, 10]: 60.08^bc ppm
- Residual Nitrite, LSMean Conc × Temp [1, 11]: 46.59^c ppm
- Residual Nitrite, LSMean main effect of Concentration [1, 12]: 81.08 ppm
- Residual Nitrite, LSMean Conc × Temp [1, 13]: 107.54^ab ppm
- Residual Nitrite, LSMean Conc × Temp [1, 14]: 77.51^abc ppm
- Residual Nitrite, LSMean Conc × Temp [1, 15]: 58.18^bc ppm
- Residual Nitrite, LSMean main effect of Concentration [1, 16]: 72.05 ppm
- Residual Nitrite, LSMean Conc × Temp [1, 17]: 86.41^abc ppm
- Residual Nitrite, LSMean Conc × Temp [1, 18]: 47.02^c ppm
- Residual Nitrite, LSMean Conc × Temp [1, 19]: 82.73^ab ppm
- Residual Nitrite, LSMean main effect of Temperature [1, 20]: 104.42^a ppm and 104.42 ppm
- Residual Nitrite, LSMean main effect of Temperature [1, 21]: 61.54^b ppm and 61.54 ppm
- Residual Nitrite, LSMean main effect of Temperature [1, 22]: 62.50^b ppm and 62.50 ppm
- Residual Nitrite, LSMean main effect of Concentration [1, 23]: 182.18 ppm
- Residual Nitrite, LSMean Conc × Temp [1, 24]: 187.92 ppm
- Residual Nitrite, LSMean Conc × Temp [1, 25]: 204.95 ppm
- Residual Nitrite, LSMean Conc × Temp [1, 26]: 153.68 ppm
- Residual Nitrite, LSMean main effect of Concentration [1, 27]: 202.15 ppm
- Residual Nitrite, LSMean Conc × Temp [1, 28]: 199.54 ppm
- Residual Nitrite, LSMean Conc × Temp [1, 29]: 214.72 ppm
- Residual Nitrite, LSMean Conc × Temp [1, 30]: 192.19 ppm
- Residual Nitrite, LSMean main effect of Concentration [1, 31]: 196.51 ppm
- Residual Nitrite, LSMean Conc × Temp [1, 32]: 184.28 ppm
- Residual Nitrite, LSMean Conc × Temp [1, 33]: 202.30 ppm
- Residual Nitrite, LSMean Conc × Temp [1, 34]: 202.96 ppm
- Residual Nitrite, LSMean main effect of Temperature [1, 35]: 190.58 ppm
- Residual Nitrite, LSMean main effect of Temperature [1, 36]: 207.32 ppm
- Residual Nitrite, LSMean main effect of Temperature [1, 37]: 182.94 ppm
- NO-Heme (NOS system [2]): 17.88^b ppm
- Nitrosylation (NOS system [2]): 94.93^b %
- Total Heme (NOS system [2]): 79.11^a ppm
- Nitrosylation (NOS system [2]; listed as sodium nitrite): 94.93%
- Residual Nitrite, LSMean main effect of Concentration [3, 8]: 42.30^b ppm and 42.30 ppm
- Residual Nitrite, LSMean Conc × Temp [3, 9]: 58.68 ppm
- Residual Nitrite, LSMean Conc × Temp [3, 10]: 41.15 ppm
- Residual Nitrite, LSMean Conc × Temp [3, 11]: 27.07 ppm
- Residual Nitrite, LSMean main effect of Concentration [3, 12]: 62.37^a ppm and 62.37 ppm
- Residual Nitrite, LSMean Conc × Temp [3, 13]: 66.93 ppm
- Residual Nitrite, LSMean Conc × Temp [3, 14]: 46.37 ppm
- Residual Nitrite, LSMean Conc × Temp [3, 15]: 73.82 ppm
- Residual Nitrite, LSMean main effect of Concentration [3, 16]: 68.22^a ppm and 68.22 ppm
- Residual Nitrite, LSMean Conc × Temp [3, 17]: 63.47 ppm
- Residual Nitrite, LSMean Conc × Temp [3, 18]: 57.10 ppm
- Residual Nitrite, LSMean Conc × Temp [3, 19]: 84.08 ppm
- Residual Nitrite, LSMean main effect of Temperature [3, 20]: 63.03 ppm
- Residual Nitrite, LSMean main effect of Temperature [3, 21]: 48.21 ppm
- Residual Nitrite, LSMean main effect of Temperature [3, 22]: 61.66 ppm
- Residual Nitrite, LSMean main effect of Concentration [3, 23]: 214.53^a ppm and 214.53 ppm
- Residual Nitrite, LSMean Conc × Temp [3, 24]: 173.70^ab ppm
- Residual Nitrite, LSMean Conc × Temp [3, 25]: 178.90^ab ppm
- Residual Nitrite, LSMean Conc × Temp [3, 26]: 164.54^b ppm
- Residual Nitrite, LSMean main effect of Concentration [3, 27]: 183.17^b ppm and 183.17 ppm
- Residual Nitrite, LSMean Conc × Temp [3, 28]: 208.65^ab ppm
- Residual Nitrite, LSMean Conc × Temp [3, 29]: 166.20^b ppm
- Residual Nitrite, LSMean Conc × Temp [3, 30]: 174.67^ab ppm
- Residual Nitrite, LSMean main effect of Concentration [3, 31]: 172.38^b ppm and 172.38 ppm
- Residual Nitrite, LSMean Conc × Temp [3, 32]: 196.48^ab ppm
- Residual Nitrite, LSMean Conc × Temp [3, 33]: 232.01^a ppm
- Residual Nitrite, LSMean Conc × Temp [3, 34]: 215.08^ab ppm
- Residual Nitrite, LSMean main effect of Temperature [3, 35]: 192.61 ppm
- Residual Nitrite, LSMean main effect of Temperature [3, 36]: 186.00 ppm
- Residual Nitrite, LSMean main effect of Temperature [3, 37]: 185.85 ppm
- Nitrite (NOS system [4]): 21.27^a ppm
- Nitrite (NOS system [4]; listed as sodium nitrite): 21.27 ppm and ~18 ppm
- residual sodium nitrite ([5]; Day 1): 85.05
- residual sodium nitrite ([5]; Day 7): 74.53
- residual sodium nitrite ([5]; Day 14): 121.03
- residual sodium nitrite ([5]; Day 28): 73.73
- Residual Nitrite, LSMean main effect of Concentration [6, 8]: 64.56^b ppm and 64.56 ppm
- Residual Nitrite, LSMean Conc × Temp [6, 9]: 66.48 ppm
- Residual Nitrite, LSMean Conc × Temp [6, 10]: 68.47 ppm
- Residual Nitrite, LSMean Conc × Temp [6, 11]: 58.74 ppm
- Residual Nitrite, LSMean main effect of Concentration [6, 12]: 78.51^ab ppm and 78.51 ppm
- Residual Nitrite, LSMean Conc × Temp [6, 13]: 80.52 ppm
- Residual Nitrite, LSMean Conc × Temp [6, 14]: 85.36 ppm
- Residual Nitrite, LSMean Conc × Temp [6, 15]: 69.65 ppm
- Residual Nitrite, LSMean main effect of Concentration [6, 16]: 90.59^a ppm and 90.59 ppm
- Residual Nitrite, LSMean Conc × Temp [6, 17]: 107.26 ppm
- Residual Nitrite, LSMean Conc × Temp [6, 18]: 86.10 ppm
- Residual Nitrite, LSMean Conc × Temp [6, 19]: 78.41 ppm
- Residual Nitrite, LSMean main effect of Temperature [6, 20]: 84.75^a ppm and 84.75 ppm
- Residual Nitrite, LSMean main effect of Temperature [6, 21]: 79.98^ab ppm and 79.98 ppm
- Residual Nitrite, LSMean main effect of Temperature [6, 22]: 68.93^b ppm and 68.93 ppm
- Residual Nitrite, LSMean Conc × Temp [6, 24]: 171.64^cde ppm
- Residual Nitrite, LSMean Conc × Temp [6, 25]: 148.63^e ppm
- Residual Nitrite, LSMean Conc × Temp [6, 26]: 162.23^de ppm
- Residual Nitrite, LSMean Conc × Temp [6, 28]: 202.54^bc ppm
- Residual Nitrite, LSMean Conc × Temp [6, 29]: 177.54^cde ppm
- Residual Nitrite, LSMean Conc × Temp [6, 30]: 165.70^cde ppm
- Residual Nitrite, LSMean Conc × Temp [6, 32]: 249.27^a ppm
- Residual Nitrite, LSMean Conc × Temp [6, 33]: 223.86^ab ppm
- Residual Nitrite, LSMean Conc × Temp [6, 34]: 189.46^cd ppm
- Residual Nitrite, LSMean main effect of Temperature [6, 35]: 207.82^a ppm and 207.82 ppm
- Residual Nitrite, LSMean main effect of Temperature [6, 36]: 183.34^b ppm and 183.34 ppm
- Residual Nitrite, LSMean main effect of Temperature [6, 37]: 172.46^b ppm and 172.46 ppm
- water activity (Aw) ([7]; Day 1): 0.979
- water activity (Aw) ([7]; Day 7): 0.979
- water activity (Aw) ([7]; Day 14): 0.972
- water activity (Aw) ([7]; Day 28): 0.978

— US20230029496A1, “AMINO ACID ALTERNATIVE CURING SYSTEM” (THE TEXAS A&M UNIVERSITY SYSTEM, priority 2019, published 2023)
